According to publication PMC7932555, “A diffusible signal factor of the intestine dictates Salmonella invasion through its direct control of the virulence activator HilD” (PLoS Pathogens, 2021):
Positions count from the first letter of the chain named. Values joined by “and” are separate entries in the source; they are usually repeats but may differ in a detail not shown here. Equal entries are not always repeated.

How the values were obtained:
[1] = system: sipB::lacZY; assay: sipB::lacZY reporter β-galactosidase assay in strains expressing wild type or mutant HilD; assay type: cell-based; conditions: 20 μM fatty acid (mix: 20 μM of each)
Excerpt: To test the effect of mutations in hilD, we initially constructed a background Salmonella strain without chromosomal hilC, rtsA and hilD and fused sipB to lacZY to assess SPI-1 expression. hilD with a C-terminal 3XFLAG tag was cloned into pWSK29 under control of the tetRA promoter for tetracycline-inducible expression. This plasmid was subjected to site-directed mutagenesis at specific nucleotides to change selected amino acids to alanine, using the Agilent QuikChange II Site-Directed Mutagenesis kit following their protocol. Mutations were confirmed by DNA sequencing.
Salmonella strains were inoculated into LB buffered with 100 mM MOPS [3-(N-morpholino) propanesulphonic acid] pH 6.7, with necessary antibiotics, and fatty acids or control solvents to be tested. Cultures were incubated at 37° C without aeration overnight, and assays were performed using an established protocol.

[2] = molecular target: T1, HilD^N44A (Salmonella typhimurium, UniProt P0CL08, N44A); assay: ELISA binding of fatty acid to HilD N44A
T1 construct: made in house; host or cells: E. coli BL21 (DE3)
T1 sequence (P0CL08 1-309 N44A): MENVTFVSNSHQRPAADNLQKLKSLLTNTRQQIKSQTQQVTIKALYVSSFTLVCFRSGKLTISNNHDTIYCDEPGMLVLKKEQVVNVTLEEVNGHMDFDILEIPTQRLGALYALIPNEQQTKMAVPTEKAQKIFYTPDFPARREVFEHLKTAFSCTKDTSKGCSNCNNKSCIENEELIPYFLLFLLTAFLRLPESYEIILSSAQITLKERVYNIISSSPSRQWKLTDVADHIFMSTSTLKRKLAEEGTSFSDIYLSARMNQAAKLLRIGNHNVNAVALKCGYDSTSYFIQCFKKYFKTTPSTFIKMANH
Procedure: (§1) hilD or its mutated sequences were amplified and cloned into pET15b(+) under an N-terminal 6xHis tag. The constructs were transformed into E. coli BL21 (DE3) for expression. Transformants were induced with 5 mM IPTG for 4 hours. Cultures were centrifuged, lysed and treated with TALON beads as described above. Bound protein was eluted by applying 1 ml elution buffer to the columns. Elution was confirmed by SDS-PAGE. Following confirmation, eluted samples were dialyzed overnight in dialysis buffer (50 mM sodium phosphate, 300 mM NaCl, 10% glycerol). Protein concentration and quality were assessed by Bradford estimation and SDS-PAGE.
(§2) 96-well polystyrene plates were coated with 10 μM fatty acid in coating buffer (0.05 M sodium carbonate-bicarbonate, pH 9.3) and incubated overnight at 4°C. Wells were washed three times with PBS, followed by addition of blocking buffer (1% Ficoll 400 in PBS). After blocking, wells were washed three times with PBS, and different concentrations of proteins in blocking buffer were added and incubated at room temperature for 2 hours. […] After color development, reaction was stopped with 1N sulfuric acid and read spectrophotometrically at 490 nm. Binding was analyzed in GraphPad Prism.
(§3) All experiments were repeated twice and data of representative experiment have been shown. Kd was calculated by using Total One-Site binding in GraphPad Prism. […]

[3] = molecular target: T2, HilD^K293A (Salmonella typhimurium, UniProt P0CL08, K293A); assay: EMSA of hilA promoter DNA with HilD K293A; assay type: biochemical; conditions: 10 nM hilA promoter DNA, 30 μM fatty acid
T2 construct: made in house; host or cells: E. coli BL21 (DE3)
T2 sequence (P0CL08 1-309 K293A): T1 sequence (P0CL08 1-309 N44A) with A44N, K293A
Procedure: These were performed as previously described. Briefly, 10 nM hilA promoter DNA (-286 to +31) was mixed with 150 nM HilD in a binding buffer (100 mM Tris pH 7.5, 10 mM EDTA, 1M KCl, 1 mM DTT, 50% v/v glycerol). Fatty acids or control solvents were added at various concentrations. Binding reaction was performed at room temperature for 1 hour. Dye solution was added to final concentration of 1X and samples were separated on 10% acrylamide gels. DNA was stained using SYBR Safe and visualized in BioRad GelDoc imaging system.

[4] = molecular target: T3, wild type HilD (Salmonella typhimurium, UniProt P0CL08); assay: ELISA binding of fatty acid to wild type HilD; conditions: plates pre-adsorbed with 10 μM fatty acid, non-linear regression
T3 construct: made in house; host or cells: E. coli BL21 (DE3)
T3 sequence (P0CL08 1-309): T1 sequence (P0CL08 1-309 N44A) with A44N
Procedure: as §1, §2, §3

[5] = molecular target: T4, HilD (Salmonella typhimurium, UniProt P0CL08, K293A); assay: HilD half-life (degradation) assay by western blot; assay type: cell-based; conditions: HilD K293A-3XFLAG; 20 μM fatty acid
T4 construct: hilD with a C-terminal 3XFLAG tag was cloned into pWSK29 under control of the tetRA promoter; expressed in transfected cells; host or cells: Salmonella Typhimurium strain carrying pWSK29-PtetRA-hilD-3XFLAG (background with chromosomal hilD, hilC and rtsA null)
T4 sequence (P0CL08 1-309 K293A): T1 sequence (P0CL08 1-309 N44A) with A44N, K293A
Procedure: The HilD half-life was assessed as previously described. Salmonella strains having plasmids with tetracycline-inducible hilD or its mutated sequence with a C-terminal 3XFLAG tag and a sipB::lacZ fusion (for invasion gene expression assessment) were grown overnight and then diluted 1:100 into LB buffered with 100 mM MOPS (pH 6.7) with appropriate antibiotics and fatty acids or control solvents. After 2 hours of growth, aliquots were collected to quantitate sipB::lacZ expression in a β-galactosidase assay. Individual cultures were then equilibrated to an OD600 of 1.0 to ensure equal density at the half-life assay beginning point. New protein production was halted by addition of a cocktail of antibiotics (rifampin, streptomycin and spectinomycin). These cultures were incubated at 37°C and aliquots were collected every 30 minutes for 2 hours. Samples were lysed in 5X sample buffer, boiled, and immunoblotted with an anti-FLAG antibody to monitor HilD.

[6] = strain expressing wild type HilD

SMILES	repression of sipB expression ([1]; strain expressing HilD K43A)	repression of sipB expression ([1]; strain expressing HilD K293A)	repression of sipB expression ([1]; strain expressing HilD K294A)	repression of sipB expression ([1]; strain expressing HilD Q290A)	repression of sipB expression [1, 6]	binding in ELISA (in words) [2]	effect on HilD binding to hilA promoter DNA [3]	Kd [4] [µM]	HilD degradation [5]
CCCCCCCCCCCCC/C=C\C(=O)O [c2-HDA, cis-2-hexadecenoic acid]	Repression by c2-HDA, however, remained unaffected	No significant repression	No significant repression	Repression by c2-HDA, however, remained unaffected	~11 fold and 10.9 fold	essentially no binding	remained bound to the hilA promoter	3.5	protected from degradation
CCCCCCCCCCCCC/C=C/C(=O)O [t2-HDA, trans-2-hexadecenoic acid]	–	–	–	–	5.2 fold	essentially no binding	efficiently reduced the DNA binding capacity	9.8	rapidly degraded
